Results published in the COVID Moonshot data (paper PMC7615835).
Where “and” joins values, the source holds several entries; their conditions need not be identical. Equal entries are not always repeated.

These compounds were tested against SARS-CoV-2 Main Protease (SARS-CoV-2) (UniProt P0DTD1).
In the case of `CNC(=O)C1(N2Cc3ccc(Cl)cc3C3(CCN(c4cncc5ccccc45)C3=O)C2)CC1` (stereo not drawn), the IC50 is reported as 0.0732 µM. With `CS(=O)(=O)Cc1ccc(N(C(=O)c2cnc[nH]2)C(C(=O)NCCc2cccc(F)c2)c2cccnc2)cc1` (stereo not drawn) the IC50 was 41.1 µM. For `COC(=O)C(C(=O)Nc1cnccc1C)c1cccc(Cl)c1` (stereo not drawn), the IC50 was 23.7 µM. In the case of `O=C(NC1(C(=O)Nc2cncc3ccccc23)CCOc2ccc(Cl)cc21)C1CCC(C(=O)N2CCCC2)O1` (stereo not drawn), the IC50 is reported as 2.81 µM. `CC(C)CN1CC(C)(C(=O)Nc2cncc3ccccc23)c2cc(Cl)ccc2S1(=O)=O` (stereo not drawn) was tested, and the IC50 was 0.153 µM. In the case of `CCOC(=O)N1Cc2ccc(Cl)cc2C(C(=O)Nc2cncc3ccccc23)C1` (stereo not drawn), the IC50 is reported as 0.236 µM. `O=C(Nc1cnc2ccccn12)C1CCNc2cc(Cl)c(Cl)cc21` (stereo not drawn) was tested, and the IC50 was 1.98 µM. `Cc1cc(C(=O)Nc2cnc3nccn3c2)nn1-c1ccc(F)cc1` gave an IC50 of over 99.5 µM. `Cc1nn(C)c2[nH]nc(NC(=O)Cc3cccc(Cl)c3)c12` was tested, and the IC50 was over 99.5 µM. Work on `O=C(Cc1cccc(Cl)c1)Nc1cncc2cnoc12` yielded an IC50 of 23.9 µM. With `CNC(=O)CN1CC(C(=O)Nc2cncc3cccc(C)c23)c2cc(Cl)ccc2C1=O` (stereo not drawn) the IC50 was 0.361 µM. Work on `O=C(Nc1cncc2c1CNCC2)C1CCOc2ccc(Cl)cc21` (stereo not drawn) yielded an IC50 of 6.16 µM. In the case of `O=C(Cc1cc(Cl)cc(Nc2nnc(Cl)cc2Br)c1)Nc1cncc2ccccc12`, the IC50 is reported as 1.81 µM. Work on `CS(=O)(=O)c1ccc2c(N3CCC4(CN(S(=O)(=O)CC5(C#N)CC5)Cc5ccc(Cl)cc54)C3=O)cncc2c1` (stereo not drawn) yielded an IC50 of 0.103 µM. `O=C(Cc1cccc(Cl)c1)Nc1cncn2cnnc12` showed an IC50 of over 99.5 µM. With `Cn1nc(C(=O)NC(C)(C(=O)Nc2cncc3ccccc23)c2ccc(Cl)c(Cl)c2)cc1C#N` (stereo not drawn) the IC50 was 7.58 µM and 14.1 µM. Compound `COc1nc2ncc(C(C(=O)NCCc3cccc(F)c3)N(C(=O)c3cocn3)c3ccc(C(C)(C)C)cc3)cn2n1` (stereo not drawn) has an IC50 of 33.4 µM. Compound `C=CC(=O)N(c1ccc(C(F)(F)F)cc1)C(C(=O)NCCc1cccc(F)c1)c1cncc(Cl)c1` (stereo not drawn) has an IC50 of 23.9 µM. With `O=C(Cn1nnc2ccccc21)N(Cc1ccccn1)c1ccc(-n2cnnc2)cc1` the IC50 was over 99.5 µM. `Nc1nn(C(=O)Cc2cccc(Cl)c2)c2ccc(F)cc12` showed an IC50 of over 99.5 µM. `CCN1CCN(c2ccc(Nc3cc(Cl)cc(CC(=O)Nc4cncc5ccccc45)c3)cc2)CC1` showed an IC50 of 4.3 µM. Compound `Cc1noc(C)c1S(=O)(=O)N1CCN(C(=O)CCl)CC1` has an IC50 of 4.06 µM. With `COc1ccc(C2CC(c3cccs3)=NN2C(=O)CCl)cc1OC` (stereo not drawn) the IC50 was 1.75 µM and 2 µM. Compound `O=C(C[C@]1(C(=O)Nc2cncc3ccccc23)CCOc2ccc(Cl)cc21)N1CCN(C2CCOC2)CC1` (stereo in doubt) has an IC50 of 1.99 µM. `CC(C)(C)c1ccc(N(C(=O)c2cocn2)C(C(=O)NCC(=O)OCc2ccccc2)c2cccnc2)cc1` (stereo not drawn) gave an IC50 of 9.92 µM. For `O=C(Cc1cc(Cl)cc(OC2CCC(=O)N2)c1)Nc1cncc2ccccc12` (stereo not drawn), the IC50 was 85.9 µM. `CC(C)(C)c1ccc(N(C(=O)c2cnc[nH]2)C(C(=O)NCCc2cccc(F)c2)c2cc(=O)[nH]c3ccccc23)cc1` (stereo not drawn) gave an IC50 of 1.31 µM. With `O=C1O[C@@]2(CCOc3ccc(Cl)cc32)C(=O)N1c1cncc2ccccc12` (stereo in doubt) the IC50 was over 99.5 µM. `O=C(Nn1cnc2ccccc21)C(Cc1cccc(Cl)c1)c1ccc(N2CCOCC2)cc1` (stereo not drawn) showed an IC50 of over 99.5 µM. Work on `O=C(Nc1cccnc1)c1cc(Cl)ccc1-c1ccccc1` yielded an IC50 of 39.1 µM. Compound `O=C(Cc1cc(Cl)cc(Nc2ccccc2-c2ccccc2)c1)Nc1cncc2ccccc12` has an IC50 of 1.86 µM. For `O=C1CC(C(=O)Nc2cncc3ccccc23)c2cc(Cl)cc(Cl)c2N1` (stereo not drawn), the IC50 was 2.45 µM and 3.76 µM. `C=CC(=O)N(c1ccc(I)cc1)C(C(=O)Nc1ccc(Cl)cc1)c1cncnc1` (stereo not drawn) gave an IC50 of 26.3 µM. With `CC(C)(C)OC(=O)NCCNC(=O)C(c1cccnc1)N(C(=O)c1cocn1)c1ccc(C(C)(C)C)cc1` (stereo not drawn) the IC50 was 6.26 µM. `C[C@H](N)C(=O)N[C@@H](CCC(N)=O)C(=O)O` (stereo in doubt) was tested, and the IC50 was over 99 µM. For `Cc1cc(=O)oc2cc(Nc3cc(Cl)cc(CC(=O)Nc4cncc5ccccc45)c3)ccc12`, the IC50 was 2.12 µM. With `Cc1ccncc1NC(=O)Nc1cccc(Cl)c1` the IC50 was 68 µM and 61 µM. Work on `CC[C@]1(c2ccc(Nc3cc(Cl)cc(CC(=O)Nc4cncc5ccccc45)c3)cc2)CCC(=O)NC1=O` (stereo in doubt) yielded an IC50 of 1.91 µM. Work on `Cc1ccncc1NC(=O)Cc1cc(Cl)cc(-c2cnn(C)c2C(F)F)c1` yielded an IC50 of 19.3 µM. In the case of `Cc1cc(C)c(C#N)c(Sc2ncnc3c2nnn3Cc2ccccc2)n1`, the IC50 is reported as 0.649 µM. `Cc1cc(Nc2cc(Cl)cc(CC(=O)Nc3cncc4ccccc34)c2)cc(C)c1Br` gave an IC50 of 2.14 µM. Compound `CC(=O)N(CC(=O)Nc1ccc(F)c(Cl)c1)c1cccc(C#N)c1` has an IC50 of over 99.5 µM. `CC(C)(C)c1cnc(N(C(=O)c2cocn2)C(C(=O)NCCc2cccc(F)c2)c2cccnc2)o1` (stereo not drawn) showed an IC50 of 32.4 µM. Compound `CC(C)(C)c1ccc(N(C(=O)c2nc3c(s2)CCC3)C(C(=O)NCCc2cccc(F)c2)c2cccnc2)cc1` (stereo not drawn) has an IC50 of over 99.5 µM. `O=C(Cc1cc(Cl)cc(N2CC=C(c3ccccc3)CC2)c1)Nc1cncc2ccccc12` showed an IC50 of 1.66 µM. In the case of `Cc1ccncc1NC(=O)CN1CCCCC1`, the IC50 is reported as over 99.5 µM. `CC(C)(C)c1ccc(N(C(=O)c2nc3ncc(CCO)cn3n2)C(C(=O)NCCc2cccc(F)c2)c2cccnc2)cc1` (stereo not drawn) gave an IC50 of over 99.5 µM. For `COc1cc(OC)cc(-c2nc(-c3c(C)nc4sccn34)no2)c1`, the IC50 was over 99.5 µM.
